# Counter-ions that a name gives are not always drawn.
# Target: T1, human neutrophil elastase (Homo sapiens, UniProt P08246)
# T1 sequence (P08246 30-267): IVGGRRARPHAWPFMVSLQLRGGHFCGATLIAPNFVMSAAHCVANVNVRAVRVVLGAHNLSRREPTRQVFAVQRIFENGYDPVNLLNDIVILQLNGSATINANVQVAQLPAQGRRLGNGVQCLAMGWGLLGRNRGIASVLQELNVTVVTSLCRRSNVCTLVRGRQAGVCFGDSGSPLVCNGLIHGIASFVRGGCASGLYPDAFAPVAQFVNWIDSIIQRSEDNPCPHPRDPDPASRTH
# Experiment: In vitro assay of human neutrophil elastase (HNE)
# Assay type: biochemical
# Settings: 118 nM purified human neutrophil elastase, pH 8.6, 15 min incubation at 30° C., MeO-succinyl-alanyl-alanyl-prolyl-valyl-p-nitroanilide substrate; read-out: HNE IC50
# Summary of the method: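 Residual activity was taken as the 10 min rate of absorbance rise at 405 nm after adding 0.6 mM MeO-succinyl-AAPV-p-nitroanilide. Curve fitting of activity against concentration gave IC50.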
row,IC50 [nM],Compound
1,33,"CCC[C@H]1C(=O)N(S(C)(=O)=O)[C@H]2CCN(C(=O)c3cccn3C)[C@H]12 (relative stereo) [Example 240, rel-(3R,3aR,6aS)-1-Methanesulfonyl-4-(1-methyl-1H-pyrrole-2-carbonyl)-3-propyl-hexahydro-pyrrolo[3,2-b]pyrrol-2-one]"
2,22,"CCC[C@H]1C(=O)N(S(C)(=O)=O)[C@H]2CCN(C(=O)c3ccc(NC(C)=O)nc3)[C@H]12 (relative stereo) [Example 241, rel-N-[5-(4-Methanesulfonyl-5-oxo-6R-propyl-hexahydro(3aS,6aR)-pyrrolo[3,2-b]pyrrole-1-carbonyl)-pyridin-2-yl]-acetamide]"
3,22,"CCC[C@H]1C(=O)N(S(C)(=O)=O)[C@H]2CCN(C(=O)c3ccc[nH]3)[C@H]12 (relative stereo) [Example 242, rel-(3R,3aR,6aS)-1-Methanesulfonyl-3-propyl-4-(1H-pyrrole-2-carbonyl)-hexahydro-pyrrolo[3,2-b]pyrrol-2-one]"
4,11,"CCC[C@H]1C(=O)N(S(C)(=O)=O)[C@H]2CCN(C(=O)c3ccc(C(F)(F)F)cc3)[C@H]12 (relative stereo) [Example 244, rel-(3R,3aR,6aS)-1-Methanesulfonyl-3-propyl-(4-trifluoromethyl-benzoyl)-hexahydro-pyrrolo[3,2-b]pyrrol-2-one]"
5,9,"CCC[C@H]1C(=O)N(S(C)(=O)=O)[C@H]2CCN(C(=O)c3ccc(S(C)(=O)=O)cc3)[C@H]12 (relative stereo) [Example 245, rel-(3R,3aR,6aS)-1-Methanesulfonyl-4-(4-methanesulfonyl-benzoyl)-3-propyl-hexahydro-pyrrolo[3,2-b]pyrrol-2-one]"
6,21,"CCC[C@H]1C(=O)N(S(C)(=O)=O)[C@H]2CCN(C(=O)c3ccncc3)[C@H]12 (relative stereo) [Example 246, rel-(3R,3aR,6aS)-1-Methanesulfonyl-3-propyl-4-(pyridine-4-carbonyl)-hexahydro-pyrrolo[3,2-b]pyrrol-2-one]"
7,28,"CCC[C@H]1C(=O)N(S(C)(=O)=O)[C@H]2CCN(C(=O)c3cccnc3)[C@H]12 (relative stereo) [Example 247, rel-(3R,3aR,6aS)-1-Methanesulfonyl-3-propyl-4-(pyridine-3-carbonyl)-hexahydro-pyrrolo[3,2-b]pyrrol-2-one]"
8,144,"CC(C)[C@H]1C(=O)N(S(C)(=O)=O)[C@H]2CCN(C(=O)CCCC3CCNCC3)[C@H]12 (relative stereo) [Example 255, rel-(3R,3aR,6aS)-3-Isopropyl-1-methanesulfonyl-4-(4-piperidin-4-yl-butyryl)-hexahydro-pyrrolo[3,2-b]pyrrol-2-one hydrochloride]"
9,78,"CC(C)[C@H]1C(=O)N(S(C)(=O)=O)[C@H]2CCN(C(=O)CCCC3CCN(C)CC3)[C@H]12 (relative stereo) [Example 256, rel-(3R,3aR,6aS)-3-Isopropyl-1-methanesulfonyl-4-[4-(1-methyl-piperidin-4-yl)-butyryl]-hexahydro-pyrrolo[3,2-b]pyrrol-2-one hydrochloride]"
10,62,"CS(=O)(=O)N1C(=O)[C@H](C2CC2)[C@@H]2[C@@H]1CCN2C(=O)/C=C/CN1CCCCC1 (relative stereo) [Example 257, rel-(3R,3aR,6aS)-3-Cyclopropyl-1-methanesulfonyl-4-(4-piperidin-1-yl-but-2E-enoyl)-hexahydro-pyrrolo[3,2-b]pyrrol-2-one hydrochloride]"

# Second part, the compound before the results:
row,Compound,IC50 [nM]
1,"CCC[C@H]1C(=O)N(S(C)(=O)=O)[C@H]2CCN(C(=O)c3ccccc3)[C@H]12 (relative stereo) [Example 233, rel-(3R,3aR,6aS)-4-Benzoyl-1-methanesulfonyl-3-propyl-hexahydro-pyrrolo[3,2-b]pyrrol-2-one]",62
2,"CCC[C@H]1C(=O)N(S(C)(=O)=O)[C@H]2CCN(S(=O)(=O)c3ccc(N)cc3)[C@H]12 (relative stereo) [Example 234, rel-(3R,3aR,6aS)-4-(4-Amino-benzenesulfonyl)-1-methanesulfonyl-3-propyl-hexahydro-pyrrolo[3,2-b]pyrrol-2-one]",11
3,"CCC[C@H]1C(=O)N(S(C)(=O)=O)[C@H]2CCN(S(=O)(=O)c3cccc(N)c3)[C@H]12 (relative stereo) [Example 235, rel-(3R,3aR,6aS)-4-(3-Amino-benzenesulfonyl)-1-methanesulfonyl-3-propyl-hexahydro-pyrrolo[3,2-b]pyrrol-2-one hydrochloride]",9
4,"CCC[C@H]1C(=O)N(S(C)(=O)=O)[C@H]2CCN(S(=O)(=O)c3ccccc3N)[C@H]12 (relative stereo) [Example 236, rel-(3R,3aR,6aS)-4-(2-Amino-benzenesulfonyl)-1-methanesulfonyl-3-propyl-hexahydro-pyrrolo[3,2-b]pyrrol-2-one]",18
5,"CC(C)[C@H]1C(=O)N(S(C)(=O)=O)[C@H]2CCN(S(=O)(=O)c3ccc(N)cc3)[C@H]12 (relative stereo) [Example 237, rel-(3R,3aR,6aS)-4-(4-Amino-benzenesulfonyl)-3-isopropyl-1-methanesulfonyl-hexahydro-pyrrolo[3,2-b]pyrrol-2-one]",29
6,"CCC[C@H]1C(=O)N(S(C)(=O)=O)[C@H]2CCN(C(=O)c3ccccn3)[C@H]12 (relative stereo) [Example 238, rel-(3R,3aR,6aS)-1-Methanesulfonyl-3-propyl-4-(pyridine-2-carbonyl)-hexahydro-pyrrolo[3,2-b]pyrrol-2-one]",9
7,"CCCCOc1ccc(C(=O)N2CC[C@H]3[C@H]2[C@@H](CCC)C(=O)N3S(C)(=O)=O)cc1 (relative stereo) [Example 239, rel-(3R,3aR,6aS)-4-(4-Butoxy-benzoyl)-1-methanesulfonyl-3-propyl-hexahydro-pyrrolo[3,2-b]pyrrol-2-one]",18
8,"C=CC[C@@H]1C(=O)N(S(=O)(=O)c2ccc3ccccc3c2)[C@@H]2CCN(C(=O)OCc3ccccc3)[C@@H]12 [Example 53, (3aR,6S,6aS)-6-Allyl-4-(naphthalene-2-sulfonyl)-5-oxo-hexahydro-pyrrolo[3,2-n]pyrrole-1-carboxylic acid benzyl ester]",143
9,"CCC[C@@H]1C(=O)N(S(=O)(=O)c2ccc3ccccc3c2)[C@@H]2CCN(C(=O)CCN3CCCCC3)[C@@H]12 [Example 54, (3S,3aS,6aR)-1-(Naphthalene-2-sulfonyl)-4-(3-piperidin-1-yl-propionyl)-3-propyl-hexahydro-pyrrolo[3,2-b]pyrrol-2-one hydrochloride]",120
10,"C=CC[C@H]1C(=O)N(S(=O)(=O)c2ccc3ccccc3c2)[C@H]2CCN(C(=O)OCc3ccccc3)[C@H]12 [Example 55, (3aS,6R,6aR)-6-Allyl-4-(naphthalene-2-sulfonyl)-5-oxo-hexahydro-pyrrolo[3,2-b]pyrrole-1-carboxylic acid benzyl ester]",38
11,"CCC[C@H]1C(=O)N(S(=O)(=O)c2ccc3ccccc3c2)[C@H]2CCN(C(=O)CCN3CCCCC3)[C@H]12 [Example 56, (3R,3aR,6aS)-1-(Naphthalene-2-sulfonyl)-4-(3-piperidin-1-yl-propionyl)-3-propyl-hexahydro-pyrrolo[3,2-b]pyrrol-2-one hydrochloride]",81
12,"CCC[C@H]1C(=O)N(S(C)(=O)=O)[C@H]2CCN(C(=O)CCCCCN3CCCCCC3)[C@H]12 [Example 115, (3R,3aR,6aS)-4-(6-Azepin-1-yl-hexanoyl)-1-methanesulfonyl-3-propyl-hexahydro-pyrrolo[3,2-b]pyrrol-2-one hydrochloride]",314
13,"CCC[C@H]1C(=O)N(S(C)(=O)=O)[C@H]2CCN(C(=O)CCN3CCCCC3)[C@H]12 [Example 116, (3R,3aR,6aS)-1-Methanesulfonyl-4-(3-piperidin-1-yl-propionyl)-3-propyl-hexahydro-pyrrolo[3,2-b]pyrrol-2-one hydrochloride]",417
14,"rel-(3aS,6R,6aR)-6-Allyl-4-benzylsulfamoyl-5-oxo-hexahydro-pyrrolo[3,2-b]pyrrole-1-carboxylic acid benzyl ester [Example 19]",5230

# System: Intracellular elastase
# Experiment: Oral in vivo model using IL-8 induced lung infiltrates for the assessment of intracellular elastase inhibition (hamster test)
# Settings: effective dose of less than 40 mg/kg, IL-8 intratracheal
# Protocol: An Oral in vivo Model Using IL-8 Induced Lung Infiltrates For the Assessment of Intracellular Elastase Inhibition
# Adult hamsters (100-150 g) are randomised into groups (n=4) and fasted overnight. Under gaseous anaesthetic (3% isofluorane) animals are dosed orally with 1 mL/100 g water as vehicle or containing predissolved compounds. Either at the same time, or subsequently under anaesthetic, animals are dosed intratracheally with 1 ug recombinant human IL-8 in 100 uL sterile saline. Six hours after IL-8 dosing animals are sacrificed using intrapertoneal pentobarbitone. The lungs are ravaged with 2×2.5 mL sterile saline and femurs are removed by dissection.
# Intracellular elastase is prepared from neutrophils collected by lavage and from femoral bone marrow. This is achieved by sonication of the neutrophils and centrifugation to yield intracellular granules. These are disrupted by freeze/thawing and sonication. Elastase and myeloperoxidase assays are then performed on these samples to assess the efficacy of the compounds and to normalise for neutrophil recovery.
row,Compound,duration of effect
1,"CC(C)[C@H]1C(=O)N(S(C)(=O)=O)[C@H]2CCN(C(=O)/C=C/CN3CCCCC3)[C@H]12.Cl (relative stereo) [Example 135, rel-(3R,3aR,6aS)-3-Isopropyl-1-methanesulfonyl-4-(4-piperidin-1-yl-but-2E-enoyl)-hexahydro-pyrrolo[3,2-b]pyrrol-2-one hydrochloride]",at least 6 hours
2,"CC(C)[C@@H]1C(=O)N(S(C)(=O)=O)[C@@H]2CCN(C(=O)/C=C/CN3CCCCC3)[C@H]21.Cl [Example 154, (3S,3aS,6aR)-3-Isopropyl-1-methanesulfonyl-4-(4-piperidin-1-yl-but-2E-enoyl)-hexahydro-pyrrolo[3,2-b]pyrrol-2-one hydrochloride]",at least 6 hours

# Source: patent US6215002A, “Pyrrolopyrrolone derivatives as inhibitors of neutrophil elastase” (priority 1996, dated 2001)
